Read-outs that look alike come from different tables or passages of the source.
Assays:
[1] = tested on: patients with blepharospasm; details: for neurological or neuropsychiatric changes during the drug challenge test: in vivo
[2] = tested on: rodent model using fear conditioning; details: cited from earlier work
[3] = n=7 per group, 8 weeks, single drug

SMILES | neurological or neuropsychiatric changes during the drug challenge test [1] | change in severity of blepharospasm, BSDI, before vs after drug challenge test [1, 3] | change in severity of blepharospasm, JRS, before vs after drug challenge test [1, 3] | change in severity of blepharospasm, VAS, before vs after drug challenge test [1, 3] | change in severity of blepharospasm, mVAS, before vs after drug challenge test [1, 3] | corrected VAS (mVAS), after the drug challenge test ([1]; L-DOPA group, n=7, DOPACOL 1 to 3 tablets/day over 8 weeks, before 141.3±8.7, P<0.05, severity significantly progressed) | fear memory ([2]; administration of D1 receptor agonist, Chen et al., Brain Research 2020) | fear memory ([2]; single injection of D2 receptor antagonist, Ponnusamy et al., Learning & Memory 2005)
CN(C)CCCN1c2ccccc2Sc2ccc(Cl)cc21 [CPZ, chlorpromazine] | No apparent neurological or neuropsychiatric changes | No significant changes in severity | No significant changes in severity | No significant changes in severity | No significant changes in severity | – | – | –
N[C@@H](Cc1ccc(O)c(O)c1)C(=O)O [L-DOPA, L-3,4-dihydroxyphenylalanine] | No apparent neurological or neuropsychiatric changes | no severity progressed | no severity progressed | no severity progressed | – | 178.8±24.3 | – | –
Br.Cc1cccc(C2CN(C)CCc3c2cc(O)c(O)c3Cl)c1 (stereo not drawn) [SKF83959] | – | – | – | – | – | – | long-term loss of fear memory | –
CCN1CCCC1CNC(=O)c1cc(S(N)(=O)=O)ccc1OC (stereo not drawn) [sulpiride] | – | – | – | – | – | – | – | effective in erasing fear memory
